Assay results from patent US6800659B2, “Compounds for modulating cell proliferation” (HSC Research and Development Limited Partnership, priority 2000, dated 2004).

What was measured:
Type in all cases: cell-based
Jak2 = target: T1, Jak2 (Homo sapiens, UniProt O60674); assay: Jak2 immunoprecipitate kinase assay after preincubation of Z119 cells; details: Z119 cells preincubated for 5 hours (FIG. 24)
T1 construct: The cells were lysed in lysis buffer and immunoprecipitated with Jak2 antibody; endogenous in cells; host or cells: Z119 Ph+ ALL cell line (immunoprecipitate after 5 h preincubation of cells with CR4)
T1 sequence (O60674 whole entry): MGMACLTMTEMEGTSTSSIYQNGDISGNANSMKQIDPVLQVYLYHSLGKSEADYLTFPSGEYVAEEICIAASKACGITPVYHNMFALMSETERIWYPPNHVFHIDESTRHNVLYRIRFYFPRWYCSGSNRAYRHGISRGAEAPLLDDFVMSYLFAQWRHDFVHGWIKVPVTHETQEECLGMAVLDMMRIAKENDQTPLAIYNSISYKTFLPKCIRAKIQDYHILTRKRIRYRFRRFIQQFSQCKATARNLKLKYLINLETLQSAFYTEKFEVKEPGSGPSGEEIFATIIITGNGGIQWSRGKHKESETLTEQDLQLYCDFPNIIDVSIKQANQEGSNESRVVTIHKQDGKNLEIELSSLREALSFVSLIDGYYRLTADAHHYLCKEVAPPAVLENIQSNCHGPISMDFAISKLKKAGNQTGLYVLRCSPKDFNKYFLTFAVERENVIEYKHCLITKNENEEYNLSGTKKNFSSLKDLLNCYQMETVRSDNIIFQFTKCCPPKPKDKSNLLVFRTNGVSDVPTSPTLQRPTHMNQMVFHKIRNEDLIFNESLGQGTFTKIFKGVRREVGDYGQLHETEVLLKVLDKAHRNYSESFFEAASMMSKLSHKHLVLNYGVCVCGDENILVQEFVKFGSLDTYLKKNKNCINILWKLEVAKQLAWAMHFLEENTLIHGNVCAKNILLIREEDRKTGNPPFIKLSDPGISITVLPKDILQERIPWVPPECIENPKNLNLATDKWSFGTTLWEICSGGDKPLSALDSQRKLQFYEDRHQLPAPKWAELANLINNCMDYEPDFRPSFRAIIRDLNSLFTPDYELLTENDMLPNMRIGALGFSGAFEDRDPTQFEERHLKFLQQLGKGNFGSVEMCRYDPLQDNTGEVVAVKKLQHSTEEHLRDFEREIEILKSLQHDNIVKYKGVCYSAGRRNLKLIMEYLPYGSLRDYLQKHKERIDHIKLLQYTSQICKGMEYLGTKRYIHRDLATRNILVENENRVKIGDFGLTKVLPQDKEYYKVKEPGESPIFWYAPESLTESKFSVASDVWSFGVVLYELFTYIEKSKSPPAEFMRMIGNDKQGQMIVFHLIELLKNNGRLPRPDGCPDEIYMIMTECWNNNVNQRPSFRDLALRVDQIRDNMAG
Experimental: Philadelphia (Ph+) ALL Line Z119 (5×10^6 Cells/point) was Preincubated for 5 Hours with Different Concentrations of CR4 and Immunoprecipitated with Jak2 Antibody
The cells were lysed in lysis buffer and immunoprecipitated with Jak2 antibody. The precipitates were washed twice with lysis buffer and once with kinase assay buffer, followed by addition of 10 μCi ^33PγATP. The reaction was stopped after 20 min by the addition of SDS-PAGE reducing sample buffer and separated on an 8-16% SDS-PAGE gel. The products were transferred onto nitrocellulose membrane and visualized by autoradiography.

normal bone marrow cells = assay: CFU-GEMM assay: normal bone marrow differentiation in culture
Experimental: (§1) The CFU-GEMM assay was performed according to Fauser and Messner (1978, Blood, 52(6) 143-8) and Messner and Fausser (1980, Blut, 41(5) 327-33) with some variations. In brief, heparinized bone marrow cells were layered over Percoll (1.077 gm/ml) (Pharmacia Fine Chemical, Piscataway N.J.) and centrifuged at 400 g at 4° C. for 10 minutes to remove neutrophils and RBCs. The fractionated BM cells at 2×10^5 cells/ml were cultured in IMDM (OCl, Toronto) containing 0.9% (vol/vol) methylcellulose supplemented with 30% FCS (Cansera Rexdale, ON.) or normal human plasma, a cocktail of cytokines containing G-CSF (10 ng/ml, Amgen), IL-3 (40 U/ml, Immunex), MGF (50 ng/ml, Immunex), Erythropoietin (2 u/ml, Epprex) or TPO (10 ng/ml, Amgen), 5×10^−5M β-2-mercaptoethanol and the specified concentration of CR4. The culture mixture was plated in 1 ml volumes into 35 mm petri dishes and incubated at 37° C., 5% CO2 in a humidified atmosphere. All cultures were evaluated at 14 days for the number of BFU-E colonies (defined as aggregates of more than 500 hemoglobinized cells or, 3 or more erythroid subcolonies), OFU-GM colonies (defined as granulocyte or monocyte-macrophage cells or both), CFU-Meg colonies (comprising 4 or more megakaryocytes) and CFU-GEMM colonies (a mixed population comprising of all elements).
as §1, with “1243-8)” for “143-8)”, “concentrations” for “concentration”, “CR19.” for “CR4.”, “hemaglobinized” for “hemoglobinized”, “subcolonies) and CFU-C” for “subcolonies), OFU-GM”, “both).” for “both), CFU-Meg colonies (comprising 4 or more megakaryocytes) and CFU-GEMM colonies (a mixed population comprising of all elements).”
as §1, with “1243-8)” for “143-8)”, “variations (British Journal of Haematology, 1992, 80, p40-48).” for “variations.”, “test compound.” for “CR4.”, “CO2,” for “CO2”, “subcolonies) and CFU-C” for “subcolonies), OFU-GM”, “both).” for “both), CFU-Meg colonies (comprising 4 or more megakaryocytes) and CFU-GEMM colonies (a mixed population comprising of all elements).”

Ly-MN lymphoma cells = assay: Colony growth of Ly-MN lymphoma cells in methylcellulose culture; details: colonies at 5 days (FIG. 5)
Experimental: Ly-MN cells were plated in 1 ml volumes, in the absence of exogenous growth factors, into 35 mm petri dishes (Nunc, Gibco) containing IMDM (OCl, Toronto) plus 20% human cord blood plasma in 0.9% (vol/vol) methylcellulose (Fluka, Switzerland) and the indicated concentrations of CR4. Cultures were set at 37° C., 5% CO2 in a humidified atmosphere. Colonies consisting of more than 20 cells were counted at 5 days or earlier using an inverted microscope.

N#C/C(=C\C=C\c1ccc(O)c(O)c1)C(=O)NCc1ccccc1 [CR4, (E,E)-2-(benzylaminocarbonyl)-3-(3,4-dihydroxystyryl)acrylonitrile]
Jak2 kinase activity (Jak2; 6 μM): dramatically inhibited
Jak2 kinase activity (Jak2; concentrations higher than 6 μM): further blocked
CFU-GM colony numbers (normal bone marrow cells; 10 μM, 14 days (FIG. 1)): significantly stimulated
inhibition of BFU-E colony formation (normal bone marrow cells; 10 μM, 14 days (FIG. 1)): some inhibition
effect upon normal cell survival (normal bone marrow cells; at concentrations equivalent to those inhibiting AML-3 cells: 300-600 nM): no effect
effect upon normal cells (normal bone marrow cells; at concentrations equivalent to those inhibiting HuNS1 cells: high nanomolar to low micromolar (2.5 μM)): no effect
effect upon normal cells (normal bone marrow cells; at concentrations equivalent to those inhibiting Ly-MN cells: nanomolar doses to 2.5 μM): no effect
effect upon normal cells (normal bone marrow cells; at concentrations equivalent to those inhibiting OCl-LY2 cells: high nanomolar to low micromolar (2.5 μM)): no effect
effect upon normal cells (normal bone marrow cells; at concentrations equivalent to those inhibiting Ph+ ALL cells: low nanomolar doses (35-100)): no effect
effect upon normal cells (normal bone marrow cells; at concentrations equivalent to those inhibiting Z119 cells: low nanomolar doses): no effect
toxicity upon normal bone marrow (normal bone marrow cells; doses up to 5 μM, colonies at 14 days (FIG. 1)): negligible toxicity
normal cell growth and differentiation (normal bone marrow cells; low nanomolar doses, long term exposure): unaffected
toxicity to normal cells incubated with compound (normal bone marrow cells; until concentrations of 10-20 μM or greater were achieved): minimal toxicity
inhibition of cell proliferation and survival (Ly-MN lymphoma cells; by 2.5 μM): inhibition
inhibition of cell proliferation and survival (Ly-MN lymphoma cells; nanomolar doses): significantly inhibited
